The record followed here is patent publication US20020025337A1, “LIPID VEHICLE DRUG DELIVERY COMPOSITION CONTAINING VITAMIN E” (priority 1995, published 2002).

Converted amounts (≈) assume the structure as drawn.

The data set is described as follows: Saturated solubility of drugs in water, organic solvents, oils and Vitamin E. Particulars: for solubility / solubility at 18 h: 25 °C. How it is done: To measure the SVE of a drug, saturated solutions of the drug are prepared in methanol and chloroform. An appropriate means of preparing a saturated solution is to suspend approximately 60 mg of drug in 3 ml of the solvent and stir for 24 hours at room temperature. If all of the drug dissolves during this time, further 10 mg aliquots should be added until a suspension is again formed. After 24 hours, the suspension are centrifuged or filtered to separate drug in solution from undissolved particulate drug. The drug solutions are assayed for drug content by an appropriate means, eg. high performance liquid chromatography, and the saturated solubility calculated. The SVE is calculated by dividing the solubility in chloroform by the solubility in methanol and expressed as weight in volume (w/v).
Into each of two 10 ml bottles was weighed 60 mg of itraconazole. To one bottle was added 3 ml of chloroform. […] Further itraconazole was added in 100 mg aliquots until a suspension was formed. […] To the other bottle was added 3 ml of methanol. A magnetic stirrer bar was added to each bottle and the contents were left to stir on a magnetic stirrer. After being left overnight to stir (18 hours), the contents of each bottle were filtered through a 0.1 μm PTFE filter (Whatman). […] To assay the methanol filtrate for itraconazole content, 1 ml was diluted to 5 ml with the same diluent used for the chloroform analysis. Both samples were assayed for itraconazole content using reverse-phase high performance liquid chromatography.

Where [1] appears, read: oil or lipid, Solubility (mg/ml) Vitamin E.
Where [2] appears, read: organic solvent or mixture, thermodynamic from solid, Solubility (mg/ml) Chloroform.
Setting [3] is: organic solvent or mixture, thermodynamic from solid, Solubility (mg/ml) Methanol.

On to `C[C@]12C=CC(=O)C=C1CC[C@@H]1[C@@H]2[C@@H](O)C[C@@]2(C)[C@H]1CC[C@]2(O)C(=O)CO` [Prednisolone], for which the solubility (usually the concentration that dissolves in the medium under given conditions) (organic solvent or mixture, thermodynamic from solid, Solubility (mg/ml) Methanol, methanol, room temperature (25° C.)) was 33 mg/mL (≈ 91.6 mM).
Regarding `CC(=O)O[C@H]1C(=O)[C@@]2(C)[C@H]([C@H](OC(=O)c3ccccc3)[C@]3(O)C[C@H](OC(=O)[C@H](O)[C@@H](NC(=O)c4ccccc4)c4ccccc4)C(C)=C1C3(C)C)[C@]1(OC(C)=O)CO[C@@H]1C[C@@H]2O` [Taxol], the “Solubility (mg/ml) Water” value is reported as “insol”.
Regarding `CC(C)CCC[C@@H](C)[C@H]1CC[C@H]2[C@@H]3CC=C4C[C@@H](O)CC[C@]4(C)[C@H]3CC[C@]12C` [Cholesterol], the “Solubility (mg/ml) Water” value is given as “insol”. The same compound had a solubility under setting [1] of 150 mg/mL (≈ 388 mM). For the same compound, under setting [2], the solubility was 200 mg/mL (≈ 517 mM). Under setting [3], the solubility amounted to 5 mg/mL (≈ 12.9 mM).
In the case of `C[C@@H]1[C@H](O)[C@@H](C)/C=C/C=C/C=C/C=C/C=C/C=C/C=C/[C@H](O[C@@H]2O[C@H](C)[C@@H](O)[C@H](N)[C@@H]2O)C[C@@H]2O[C@](O)(C[C@@H](O)C[C@@H](O)[C@H](O)CC[C@@H](O)C[C@@H](O)CC(=O)O[C@H]1C)C[C@H](O)[C@H]2C(=O)O` [Amphotericin], the “Solubility (mg/ml) Chloroform” value is given as “insol”, the “Solubility (mg/ml) Vitamin E” value is recorded as “insol” and the “Solubility (mg/ml) Water” value is reported as “insol”.
For `CC(C)[C@@H](C)/C=C/[C@@H](C)[C@H]1CC[C@H]2C3=CC=C4C[C@@H](O)CC[C@]4(C)[C@H]3CC[C@]12C` [Ergosterol], the “Solubility (mg/ml) Water” value was “insol”. Also, the solubility under setting [1] was determined as 50 mg/mL (≈ 126 mM). Further, under setting [2], the solubility was 32 mg/mL (≈ 80.7 mM). Further, the solubility under setting [3] came out at 1.5 mg/mL (≈ 3.78 mM).
Turning to `CCC(C)n1ncn(-c2ccc(N3CCN(c4ccc(OCC5COC(Cn6cncn6)(c6ccc(Cl)cc6Cl)O5)cc4)CC3)cc2)c1=O` (centres unmarked) [Itraconazole], the “Solubility (mg/ml) Water” value is reported as “insol”. Also, under setting [1], the solubility came to 60 mg/mL (≈ 85 mM). Under “oil or lipid, solubility of the drug in vegetable oils”, the solubility was not above 0.4 mg/mL. In addition, the solubility under setting [2] was 500 mg/mL (≈ 709 mM). In addition, under “organic solvent or mixture, thermodynamic from solid, solubility of itraconazole in chloroform”, the solubility at 18 h was 350 mg/mL (≈ 496 mM). The solubility at 18 h (organic solvent or mixture, thermodynamic from solid, solubility of itraconazole in methanol) amounted to 0.7 mg/mL (≈ 0.992 mM). The SVE value (18 h) amounted to 500.
